Measurements from patent US20090191580A1, “METHOD OF SCREENING USING c-MET, A NOVEL SUBSTRATE FOR GAMMA-SECRETASE” (Eisai R & D Management Co., Ltd., priority 2007, published 2009).

Test system: cleavage of c-Met by γ-secretase
Test: Analysis of c-Met processing in c-Met-transfected 293/EBNA-1 cell strain (Western blotting with anti-HA antibody)
Type: cell-based, rat c-Met in HEK293 (293/EBNA-1) cells
Design: dose or concentration left out as unconfirmed
Conditions: Compound E added to culture broth, cultured another day, rat c-Met-HA transfected 293/EBNA-1 (HEK293) cells
Method: Whether or not c-Met is a substrate for γ-secretase was evaluated using HEK293 cells expressing a gene encoding c-Met with an HA tag added to its C-terminus, in the presence of a γ-secretase inhibitor. As the γ-secretase inhibitor, (2S)-2-{[(3,5-difluorophenyl)acetyl]amino}-N-[(3S)-1-methyl-2-oxo-5-phenyl-2,3-dihydro-1H-1,4-benzodiazepin-3-yl]propanamide (hereinafter, sometimes referred to as “Compound E”) (Alexis Biochemicals) was used.
293/EBNA-1 cell strain (Invitrogen) was cultured in 10% FBS (Hyclone)/DMEM (Invitrogen) under 5% CO2 at 37° C., followed by transfection thereinto of the gene encoding rat c-Met with an HA tag added to its C-terminus using Lipofectamine 2000 (Invitrogen). After one day culture under the same conditions, […] Compound E (Alexis Biochemicals) was added to the culture broth. Cells were cultured for another day under the same conditions. Then, the transfected HEK293 cells were collected with PBS (Sigma) and sonicated with a sonicator (Taitec VP-5S) to disrupt cells. Then, the quantity of protein was determined with Protein Assay Kit (BioRad). Samples (2 μl each) were taken from proteins obtained from Compound E-added cells and Compound E-not added cells, respectively, and subjected to SDS-PAGE, followed by Western blotting with an anti-HA antibody (Roche) (final concentration: 0.2 μg/ml). […]

C[C@H](NC(=O)Cc1cc(F)cc(F)c1)C(=O)N[C@H]1N=C(c2ccccc2)c2ccccc2N(C)C1=O [Compound E, (2S)-2-{[(3,5-difluorophenyl)acetyl]amino}-N-[(3S)-1-methyl-2-oxo-5-phenyl-2,3-dihydro-1H-1,4-benzodiazepin-3-yl]propanamide]
c-Met undegraded product (CTF band around 50 kDa) on Western blot: a band around 50 kDa (CTF: C terminal fragment) was accumulated specifically as a c-Met undegraded product
